In this experiment the test system is undifferentiated 3T3-L1 cell. The experiment is described as follows: Anti-adipogenesis assay on undifferentiated 3T3-L1 cell. The format is cell-based. From the text:
The major component of weight gain is the increase and accumulation of fat through adipogenesis process. Adipogenesis is characterized by increase of both fat cell number and fat cell size. The weight loss composition of the present invention, banaba extracts, and some active components which were isolated from banaba have shown strong activity through an inhibitory activity on adipocyte differentiation to block fat cell synthesis to achieve the effect on bodyweight control and body fat loss. The following is the list of the results of anti-adipogenesis assay (Table 4).

The mark [1] stands for this setting: concentration level 0.002% (w/w).
Where [2] appears, read: concentration level 0.004% (w/w).
The mark [3] stands for this setting: concentration level 0.05% (w/w).
Where [4] appears, read: concentration level 0.10% (w/w).

For the compound `COc1c(O)cc2c(=O)oc3c(O)c(O)cc4c(=O)oc1c2c34` [3-O-methylellegic acid], the Percent of inhibitory is recorded as 97% under setting [1] and 98% under setting [2].

As for `O=C(O[C@@H]1COC(=O)c2cc(O)c(O)c(O)c2-c2c(cc(O)c(O)c2O)C(=O)O[C@H]1[C@@H]1OC(=O)c2cc(O)c(O)c(O)c2-c2c(O)c(O)c(O)c3c2C(=O)O[C@H]1[C@@H]3O)c1cc(O)c(O)c(O)c1` [Casuarinin], the Percent of inhibitory turned out to be 100% under setting [1], 100% under setting [2], 100% under setting [3] and 100% under setting [4].

As to Banasulin, the Percent of inhibitory is listed as 96% under setting [1], 79% under setting [2] and 99% under setting [3].

With Lagerstroemin, the Percent of inhibitory is, setting by setting: under setting [1], 100%; under setting [2], 100%; under setting [3], 100%; under setting [4], 100%.

The record behind these values is patent US20060057228A1, “Weight loss composition” (Pure World Botanicals, Inc., priority 2004, published 2006).
